Reference: paper PMC13165350, “In Vitro Antiproliferative Effects of Benzothiazole-Based Aminosquaraine Dyes Against Cancer Cell Lines” (Molecules, 2026)

Tested on: MCF-7 cells (breast adenocarcinoma)
Assay: cells
Assay type: cell-based
Settings: Homo sapiens, MCF7; MTT, 72 h, 0.01–50 µM, dark conditions
Experimental: The cytotoxic effects of the aminosquaraines 1–8 were evaluated in breast (MCF-7 and T47D) and prostate (LNCaP) cancer cell lines using the MTT assay, as previously described [17]. […] Normal human dermal fibroblasts (NHDF) were included as a non-cancer model to assess tumor selectivity.
In a preliminary screening, cells were exposed to a single concentration (30 µM) of each dye for 72 h to assess metabolic activity.
The studied compounds were dissolved in dimethyl sulfoxide to prepare 10 mM stock solutions and stored at 4 °C. Working solutions were prepared from these stocks at the desired concentrations (30 µM for preliminary studies and 0.01, 0.1, 1, 10, 25, and 50 µM for concentration–response studies) by dilution in complete culture medium immediately before each experiment.
Metabolic activity was assessed by quantifying the reduction of 3-(4,5-dimethylthiazol-2-yl)-2,5-diphenyltetrazolium bromide (MTT), according to a previously described procedure [17]. […] Absorbance was recorded at 570 nm using an xMark™ microplate reader (Bio-Rad, Hercules, CA, USA) using Microplate Manager 6.3 software. Cell viability was calculated as a percentage relative to untreated control cells.
Selectivity indices were determined as the ratio between IC50 values obtained in the NHDF cell line and those obtained in the corresponding tumor cell lines.

Q: With `O=c1[nH]cc(F)c(=O)[nH]1` [5-FU, 5-fluorouracil] as the compound, how does the IC50 read?
A: The IC50 was 1710 nM.
